Data published in patent publication US10555987B2, “GHRH agonists for the treatment of ischemic disorders” (UNIVERSITY OF MIAMI, priority 2012, dated 2020).
Non-standard residues stand in square brackets, D forms with d. Residues, ends and D or L forms follow the SMILES beside them. *: point of attachment. Phe(F5) = N[C@@H](Cc1c(F)c(F)c(F)c(F)c1F)C(=O)O; NMeY = CN[C@@H](Cc1ccc(O)cc1)C(=O)O; Agmatine = N=C(N)NCCCCN*; Nle = CCCC[C@H](N)C(=O)O; Orn = NCCC[C@H](N)C(=O)O; Abu = CC[C@H](N)C(=O)O

Tests used:
GHRH receptor = target: T1, GHRH receptor (Homo sapiens, UniProt Q02643); assay: GHRH receptor binding, competition with 125I-labeled JV-1-42, human pituitary membrane homogenates (Table 7); set-up: Normal human pituitaries were purchased from the National Hormone and Peptide Program; tissue National Hormone and Peptide Program (A.F. Parlow, Harbor-UCLA Medical Center, Torrance, Calif.); host or cells: normal human pituitary, membrane fraction; conditions: JI-38 = 1, Table 7
T1 sequence (Q02643 23-423): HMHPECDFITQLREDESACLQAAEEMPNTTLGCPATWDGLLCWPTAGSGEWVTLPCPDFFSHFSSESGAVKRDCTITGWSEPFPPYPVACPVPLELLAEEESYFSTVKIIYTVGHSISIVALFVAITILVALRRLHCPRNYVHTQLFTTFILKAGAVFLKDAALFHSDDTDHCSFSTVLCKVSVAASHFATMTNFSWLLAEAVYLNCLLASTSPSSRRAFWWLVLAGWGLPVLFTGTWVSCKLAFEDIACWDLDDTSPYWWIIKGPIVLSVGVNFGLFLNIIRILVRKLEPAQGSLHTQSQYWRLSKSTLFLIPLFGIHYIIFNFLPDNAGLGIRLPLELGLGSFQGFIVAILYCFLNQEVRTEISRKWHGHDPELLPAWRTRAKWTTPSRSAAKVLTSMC
Source text: Normal human pituitaries were purchased from the National Hormone and Peptide Program (A.F. Parlow, Los Angeles, County Harbor-UCLA Medical Center, Torrance, Calif.).

GH release = assay: In vivo endocrine activity, GH release after subcutaneous administration (Table 9); conditions: rat; for Stimulation of growth hormone levels after subcutaneous administration (in words): s.c.; for GH releasing potency relative to JI-38 (=1): subcutaneous (s.c.) injection
Experimental: Subcutaneous Administration. Adult male rats were used and anesthetized with pentobarbital (6 mg/100 g, b.w.), by i.p. injection. […] Blood samples were taken from the jugular vein 5, 15 and/or 30 minutes after the injection. The blood samples were centrifuged, plasma was removed and the GH level was measured byELISA. The results are summarized in terms of potency in Table 9.

[1] = tested on: myocardial infarction (Fisher-344 rats); assay: Serial echocardiography after MI, compared to JI-38 (Example 15, Table 15); assay type: in vivo, rat; set-up: key to LVEDD: Left Ventricular End Diastolic Diameter / LVESD: Left Ventricular End Systolic Diameter / VD: Ventricular Diastole / VS: Ventricular Systole / EF: Ejection Fraction / FS: Fraction Shortening: ↓: downward arrow denotes lower than JI-38; ↑: upward arrow denotes greater than JI-38; =denotes same as JI-38; ⬇⬇: double arrow denotes greater effect; ⬆⬆: double arrow denotes greater effect; conditions: for EF: Ejection Fraction / FS: Fraction Shortening / LVEDD: Left Ventricular End Diastolic Diameter / LVESD: Left Ventricular End Systolic Diameter / VD: Ventricular Diastole / VS: Ventricular Systole: in comparison to JI-38
Experimental: Echocardiographic measurements were obtained at baseline, 2 days, 1, 2 and 4 weeks. Echocardiographic assessments were performed in anesthetized rats (2% isoflurane inhalation) using a Vevo-770 echocardiogram (Visual Sonics Inc., Toronto, Ontario, Canada) equipped with a 17.5-MHz transducer. Cardiac dimensions: LV end diastolic (LVEDD), end systolic (LVESD) diameters and fractional shortening (FS) were recorded from M-mode images using averaged measurements from 3 to 5 consecutive cardiac cycles according to the American Society of Echocardiography. Ejection fraction (EF) was calculated from bi-dimensional long-axis parasternal views taken through the infarcted area. All images were analyzed using Vevo 770 3.0.0 software (Visual Sonics Inc., Toronto, Ontario, Canada).
Myocardial infarction (MI) was induced by permanent ligation of the left coronary artery in female 6-month-old Fisher-344 rats. Following experimental myocardial infarction (MI), rats were randomly assigned to receive either placebo, JI-38, or one of the following new analogs of GHRH: MR-30 l(P-21301), MR-303(P-21303), MR-356(P-20356), MR-502(25502), MR-350(P-20350), MR-36 l(P-20361), MR-367(P-20367), MR-403(P-27403), MR-404(P-27404), and MR-409(P-27409) (10 rats per each group). The GHRH peptide agonists were adminsistered starting 2 hours post-surgery, 1 week, 2 week, and 4 week intervals. All treatment was given subcutaneously twice daily. Cardiac performance was assessed by serial echocardiography and hemodynamic analysis derived from pressure-volume loops as described before.
The echocardiographic experiments are shown in FIGS. 10-15 and the results are summarized in Table 15 (results were expressed in comparison to JI-38; downward arrow denotes lower than JI-38; upward arrow denotes greater than JI-38; =denotes same as JI-38; and double arrow denotes greater effect).

| Compound | Relative affinity (Binding potency) vs JI-38 (GHRH receptor) | Stimulation of growth hormone levels after subcutaneous administration (in words) (GH release) | GH releasing potency relative to JI-38 (=1) (GH release; 15 min after) | GH releasing potency relative to JI-38 (=1) (GH release; 30 min after) | cardiac dimensions (LVEDD and LVESD) ([1]; after MI) | cardiac performance (EF and FS) ([1]; after MI) | EF: Ejection Fraction [1] | FS: Fraction Shortening [1] | LVEDD: Left Ventricular End Diastolic Diameter [1] | LVESD: Left Ventricular End Systolic Diameter [1] | VD: Ventricular Diastole [1] | VS: Ventricular Systole [1] |
| --- | --- | --- | --- | --- | --- | --- | --- | --- | --- | --- | --- | --- |
| CCCC[C@H](NC(=O)[C@@H](NC(=O)[C@H](CC(=O)O)NC(=O)[C@H](CCC(N)=O)NC(=O)[C@H](CC(C)C)NC(=O)[C@H](CC(C)C)NC(=O)[C@H](CCCN)NC(=O)[C@H](CCCNC(=N)N)NC(=O)[C@H](C)NC(=O)[C@H](CO)NC(=O)[C@H](CC(C)C)NC(=O)[C@H](CCC(N)=O)NC(=O)[C@H](CC)NC(=O)[C@H](CC(C)C)NC(=O)[C@@H](NC(=O)[C@H](CCCN)NC(=O)[C@H](CCCNC(=N)N)NC(=O)[C@H](Cc1ccc(O)cc1)NC(=O)[C@H](CO)NC(=O)[C@H](CC(N)=O)NC(=O)[C@@H](NC(=O)[C@H](Cc1ccccc1)NC(=O)[C@@H](NC(=O)[C@H](C)NC(=O)[C@H](CC(=O)O)NC(=O)[C@@H](C)NC(=O)[C@H](Cc1ccc(O)cc1)NC)[C@@H](C)CC)[C@@H](C)O)C(C)C)[C@@H](C)CC)C(=O)N[C@@H](CC(=O)O)C(=O)N[C@@H](CCCNC(=N)N)C(=O)NC [Peptide P-27409, [N—Me-Tyr^1, D-Ala^2, Orn^12, Abu^15, Orn^21, Nle^27, Asp^28]hGHRH(1-29)NH—CH3] (H-[NMeY][dA]DAIFTNSYR[Orn]VL[Abu]QLSAR[Orn]LLQDI[Nle]DR-NHMe) | 4.10 | stimulated greater growth hormone levels than hGHRH or JI-38 | 1.47 | 1.31 | reduced cardiac dimensions | substantial improvement on cardiac performance | ⬆⬆ | ⬆⬆ | ⬇⬇ | ⬇⬇ | = | = |
| CCCC[C@H](NC(=O)[C@@H](NC(=O)[C@H](CC(=O)O)NC(=O)[C@H](CCC(N)=O)NC(=O)[C@H](CC(C)C)NC(=O)[C@H](CC(C)C)NC(=O)[C@H](CCCN)NC(=O)[C@H](CCCNC(=N)N)NC(=O)[C@H](C)NC(=O)[C@H](CO)NC(=O)[C@H](CC(C)C)NC(=O)[C@H](CCC(N)=O)NC(=O)[C@H](CC)NC(=O)[C@H](CC(C)C)NC(=O)[C@@H](NC(=O)[C@H](CCCN)NC(=O)[C@H](CCCNC(=N)N)NC(=O)[C@H](Cc1ccc(O)cc1)NC(=O)[C@H](CO)NC(=O)[C@H](CCC(N)=O)NC(=O)[C@@H](NC(=O)[C@H](Cc1ccccc1)NC(=O)[C@@H](NC(=O)[C@H](C)NC(=O)[C@H](CC(=O)O)NC(=O)[C@@H](C)NC(=O)[C@H](Cc1ccc(O)cc1)NC)[C@@H](C)CC)[C@@H](C)O)C(C)C)[C@@H](C)CC)C(=O)N[C@@H](CC(=O)O)C(=O)NCCCCNC(=N)N [Peptide P-20361, [N—Me-Tyr^1, D-Ala^2, Gln^8, Orn^12, Abu^15, Orn^21, Nle^27, Asp^28, Agm^29] hGHRH (1-29)NH2] (H-[NMeY][dA]DAIFTQSYR[Orn]VL[Abu]QLSAR[Orn]LLQDI[Nle]D-Agmatine) | 5.30 |  | 1.18 | 1.50 |  |  | ↓ | = | = | = | = | ↑ |
| CCCC[C@H](NC(=O)[C@@H](NC(=O)[C@H](CC(=O)O)NC(=O)[C@H](CCC(N)=O)NC(=O)[C@H](CC(C)C)NC(=O)[C@H](CC(C)C)NC(=O)[C@H](CCCN)NC(=O)[C@H](CCCNC(=N)N)NC(=O)[C@H](C)NC(=O)[C@H](CO)NC(=O)[C@H](CC(C)C)NC(=O)[C@H](CCC(N)=O)NC(=O)[C@H](CC)NC(=O)[C@H](CC(C)C)NC(=O)[C@@H](NC(=O)[C@H](CCCN)NC(=O)[C@H](CCCNC(=N)N)NC(=O)[C@H](Cc1ccc(O)cc1)NC(=O)[C@H](CO)NC(=O)[C@H](CCC(N)=O)NC(=O)[C@@H](NC(=O)[C@H](Cc1c(F)c(F)c(F)c(F)c1F)NC(=O)[C@@H](NC(=O)[C@H](C)NC(=O)[C@H](CC(=O)O)NC(=O)[C@@H](C)NC(=O)[C@H](Cc1ccc(O)cc1)NC)[C@@H](C)CC)[C@@H](C)O)C(C)C)[C@@H](C)CC)C(=O)N[C@@H](CC(=O)O)C(=O)N[C@@H](CCCNC(=N)N)C(=O)NC [Peptide P-27404, [N—Me-Tyr^1, D-Ala^2, Fpa5^6, Orn^12, Abu^15, Orn^21, Nle^27, Asp^28]hGHRH (1-29)NH—CH3] (H-[NMeY][dA]DAI[Phe(F5)]TQSYR[Orn]VL[Abu]QLSAR[Orn]LLQDI[Nle]DR-NHMe) | 5.00 | stimulated greater growth hormone levels than hGHRH or JI-38 | 2.07 | 1.47 |  |  | = | = | ↑ | = | ↑ | ↑ |
| CCCC[C@H](NC(=O)[C@@H](NC(=O)[C@H](CC(=O)O)NC(=O)[C@H](CCC(N)=O)NC(=O)[C@H](CC(C)C)NC(=O)[C@H](CC(C)C)NC(=O)[C@H](CCCN)NC(=O)[C@H](CCCNC(=N)N)NC(=O)[C@H](C)NC(=O)[C@H](CO)NC(=O)[C@H](CC(C)C)NC(=O)[C@H](CCC(N)=O)NC(=O)[C@H](CC)NC(=O)[C@H](CC(C)C)NC(=O)[C@@H](NC(=O)[C@H](CCCN)NC(=O)[C@H](CCCNC(=N)N)NC(=O)[C@H](Cc1ccc(O)cc1)NC(=O)[C@H](CO)NC(=O)[C@H](CC(N)=O)NC(=O)[C@@H](NC(=O)[C@H](Cc1ccccc1)NC(=O)[C@@H](NC(=O)[C@H](C)NC(=O)[C@H](CC(=O)O)NC(=O)[C@@H](C)NC(=O)[C@H](Cc1ccc(O)cc1)NC)[C@@H](C)CC)[C@@H](C)O)C(C)C)[C@@H](C)CC)C(=O)N[C@@H](CC(=O)O)C(=O)NCCCCNC(=N)N [Peptide P-20367, [N—Me-Tyr^1, D-Ala^2, Orn^12, Abu^15, Orn^21, Nle^27, Asp^28, Agm^29]hGHRH(1-29)NH2] (H-[NMeY][dA]DAIFTNSYR[Orn]VL[Abu]QLSAR[Orn]LLQDI[Nle]D-Agmatine) | 2.56 |  | 1.12 | 2.01 |  |  | = | = | ↑ | ↑ | ↑ | ↑ |
